Source: patent US12203060B1, “Cell culture” (FIBROFIND IP LIMITED, priority 2015, dated 2025)

How the values were obtained:
[1] = system: precision cut liver slices (PCLS); experiment: Albumin production by precision cut liver slices cultured on CMR2 (albumin ELISA); format: cell-based; settings: PCLS on CMR2, fat, fat+LPS or BSA vehicle for 48 h after a 24 h rest period; FIG. 27
Procedure: (§1) Liver tissue was placed in a 10 cm dish containing Hanks Buffered Saline Solution (HBSS+, Lonza, BE10-508F). Four to eight mm cores of liver tissue were made using a Stiefel Biopsy Punch. Cores were then transferred to a metal mould and submerged in 2.5-3.0% low gelling temperature agarose (Sigma, A9414) and then placed on ice for 2-5 minutes.
(§2) Once set, the cores in agarose were super-glued to a vibratome mounting stage and submersed in the media chamber in ice cold HBSS+prior to cutting on a Leica VT1200 S fully automated vibrating blade microtome. Liver tissue cores were cut at a speed of 0.3 mm/see, and an amplitude 2 mm and thickness (step size) of 250 μm. Slices having a thickness of between 200-400 μm can be used.
Slices were transferred to 3 μm, 8 μm or 100 μm pore inserts provided in static (Griener) or CMR tissue culture plates. […]
100 μl of the slice culture media diluted 1:250 was removed from wells comprising slices in either a static culture plate, a unidirectional system or the CMR culture plate apparatus which was rocked using a rocking apparatus as described herein. The media was used to quantify albumin release using the Rat Albumin ELISA Quantitation Set (catalogue number E110-125) or Human Albumin ELISA Quantitation Set (catalogue number E80-129) following manufacturer's instructions.

[2] = system: precision cut liver slices (PCLS); experiment: Expression of fibrosis genes in precision cut liver slices cultured on CMR2; format: cell-based; settings: for expression of fibrosis genes (pro-collagen 1, aSMA, TIMP1): PCLS on CMR2, stimulated for 72 h after a 24 h rest period, FIG. 31
Procedure: as §1, §2
Slices were transferred to 3 μm, 8 μm or 100 μm pore inserts provided in static (Griener) or CMR tissue culture plates. The CMR tissue culture plates of embodiments of the invention comprised either holes between adjacent wells or were rapid prototyped from CAD design to comprise slots between wells. The wells contained slice culture media. The slices were cultured under static, unidirectional or rocked conditions at 37° C. in 5% carbon dioxide in a humidified tissue culture incubator. Twelve or twenty-four well CMR tissue culture plates were used, as indicated.
The slice culture media comprised the following components: • Williams Medium E (Sigma, W4128) • 2% Heat Inactivated Fetal Bovine Serum (Gibco) • Penicillin-Streptomycin (Sigma, P0781) • L-glutamine (Sigma, G7513) • Pyruvate (Sigma, S8636) • 0.5 uM Insulin/transferrin selenium mix (Gibco 51500-056) • 0.1 uM dexamethasone (Sigma, D4902) Urea Assay (Universal Biologicals Cambridge)

[3] = PCLS on CMR2, 3 ng/ml TGFb1 for 48 h, compared to control (untreated), FIG. 26B

Lipopolysaccharide [LPS]
albumin production [1]: did not affect

transforming growth factor beta 1 [TGFb1]
expression of the fibrosis gene alpha-smooth muscle actin (aSMA) [2, 3]: induced expression
expression of the fibrosis gene collagen I [2, 3]: induced expression
expression of the fibrosis gene tissue inhibitor of metalloprotease 1 (TIMP1) [2, 3]: induced expression

transforming growth factor beta [TGFb]
expression of fibrosis genes (pro-collagen 1, aSMA, TIMP1) [2]: induce expression

B1: platelet derived growth factor b (protein, UniProt P01127 82-190, looked up)
Platelet-derived growth …: SLGSLTIAEPAMIAECKTRTEVFEISRRLIDRTNANFLVWPPCVEVQRCSGCCNNRNVQCRPTQVQLRPVQVRKIEIVRKKPIFKKATVTLEDHLACKCETVAAARPVT
modifications: homodimer
notes: fibrosis-stimulating factor added to liver slices
expression of fibrosis genes (pro-collagen 1, aSMA, TIMP1) [2]: induce expression
